Values quoted from earlier work as cited in article PMC12009570 (International Journal of Nanomedicine, 2025).

Legend:
[1] = not given; remark: listed apart in the source

SMILES: Cl.O=C1[C@@H]2[C@H]3CC[C@H](C3)[C@@H]2C(=O)N1C[C@@H]1CCCC[C@H]1CN1CCN(c2nsc3ccccc23)CC1 [LSD, Lurasidone hydrochloride]
- oral bioavailability (conventional tablets, oral): 9–19%
- AUC, times higher than in the fasted state (food effect): 2 times
- Cmax, times higher than in the fasted state (food effect): 3 times
- pH at which most soluble [1]: 3.8
